Experimental data as given in US8252807B2, “Methods of inhibiting the interaction between S100 and the receptor for advanced glycation end-products” (Board of Regents, The University of Texas System, priority 2007, dated 2012).
“And” between values parts separate entries of the source, which are not always exact repeats. Equal entries are not always repeated.

What was measured:
BxPC-3 orthotopic tumors = test: Tumor growth and metastasis in scid mice, BxPC-3 orthotopic; assay type: in vivo; conditions: for lung metastasis, mean: control mean=5.5×10^8; for tumor burden (primary tumor volume by bioluminescence), mean: end of six weeks, cromolyn 5 mg per kg daily i.p., gemcitabine 125 mg per kg bi-weekly i.p., control mean=1.6×10^9
Method: BxPC-3 cells stably expressing the firefly luciferase gene were injected orthotopically into 4 week old male CB 17 scid mice. […] Mice were divided into four groups of five mice each with an equivalent mean tumor size between groups. […] One group was treated with water (control), one group received gemcitabine bi-weekly (125 mg kg body weight bi-weekly by intraperitoneal injection), one group was administered cromolyn daily (5 mg per kg body weight daily by intraperitoneal injection), and the final group was given the combination of daily cromolyn and bi-weekly gemcitabine. All groups were treated for six weeks. Bioluminescent imaging was done weekly to assess tumor growth. […] Means and 95% confidence intervals are shown. (n=20). Two-tailed two-sample (unpaired) Student's t-tests were used to determine P values. The anti-tumorigenic capability of the drug cromolyn was assessed in 4-week-old male CB 17 scid mice (n=20) carrying orthopic tumors of BxPC-3, MPanc96, and Panc-1 cells stably expressing a Lenti-luc reporter. All mouse experiments were reviewed and approved by the Institutional Animal Care and Use Committee of UT MD Anderson Cancer Center. All mice were maintained in a sterile environment. Cages, bedding, food, and water were all autoclaved. All mice were maintained on a daily 12-hour light/12-hour dark cycle, according to the institutional animal welfare guidelines. BxPC-3, MPanc96, and Panc-1 cells carrying the Lenti-luc reporter gene were grown to 80% confluence, harvested by incubation with trypsin-EDTA, washed twice in PBS, and resuspended to a final concentration of 4.0×10^6 cells/mL. Each mouse (n=20 mice per cell line) was injected (into the pancreas) with cell suspensions (50 μL). […] This initial tumor volume was used to divide the mice into four groups of five mice each, such that the mean tumor size was equal between groups (FIGS. 4A, 5A, and 6A). To allow enough time to observe differences among treatment groups, the mice were followed for the next 5 weeks. One group of mice was then treated biweekly with a sub-maximal concentration of gemcitabine (125 mg per kg body weight by i.p. injection). A second group was treated with a daily injection of cromolyn (5 mg per kg body weight by i.p. injection). A third group was treated with both bi-weekly gemcitabine and daily cromolyn. The control group was treated daily with vehicle. Treatments were continued for 5 weeks, and the effects on the tumor burden and metastasis were analyzed by weekly bioluminescence imaging (FIGS. 4B, 5B, and 6B). At the end of the experiment the mice were anesthetized with 1.5% isofluorane/air mixture and killed by cervical dislocation. […] Before imaging, mice were placed in an acrylic chamber, anesthetized with 1.5% isofluorane/air mixture, and injected i.p. with 15 mg/mL of luciferin potassium salt in PBS at a dose of 150 mg per kg body weight. A digital grey scale image of each mouse was acquired, followed by acquisition and overlay of a pseudocolor image representing the spatial distribution of detected photons emerging from active luciferase within the mouse. Tumor volume was quantified as the sum of all detected photons within the region of the tumor per second. At the end of experiment, the mice were killed, and tumors were surgically removed and weighed. After the primary tumors were removed, cancer cell dissemination and metastasis was visualized using IVIS imaging, and metastatic colonies were counted. Subsequently, tissues were fixed with formaldehyde, and histology was used to verify the accuracy of the bioluminescence data.

BxPC-3 cells = test: Flow cytometry to measure apoptosis in BxPC-3 cells; assay type: cell-based; conditions: 48 hours
Method: BxPC-3 cells were treated with cromolyn (10 μM) with (+) or without (−) gemcitabine (10 μM), and apoptosis was analyzed after 48 hours by flow cytometry. *, P<0.001 versus control, #, P=0.001 versus gemcitabine. Means and 95% confidence intervals of three independent experiments performed in triplicate are shown. Two-tailed two-sample (unpaired) Student's t-tests were used to determine P values. Standard propidium iodide (PI) staining by the hypotonic lysis method was used for apoptosis studies. Apoptosis was induced in 1.0×10^6 BxPC-3 cells by treatment with gemcitabine (10 μM), with or without cromolyn. After 48 hours the cells were detached from culture dishes by incubation in 0.05% trypsin-EDTA, washed once with cold PBS, and then incubated for 30 minutes in 500 μL of hypotonic solution (0.1% sodium citrate, 0.1% Triton X-100, 100 μg/mL RNAse, and 50 μg/mL PI), and analyzed by flow cytometry (EPICS XL, Beckman Coulter Inc, Fullerton, Calif.). Cells undergoing apoptosis that had lost part of their DNA were identified as the population of cells with sub-G1 DNA content. These assays were performed three times.

PC3 prostate cells = test: PC3 prostate cell viability with taxol; assay type: cell-based; conditions: taxol 100 nM, cromolyn 10 μM, 48 hours
Method: PC3 prostate cells were plated and treated with taxol (100 nM) either in the presence or absence of cromolyn (10 μM) for 48 hours. Cell viability was analyzed after 48 hours. *, P<0.05.

MPan-96 cells = test: MPanc-96 cell invasiveness; assay type: cell-based, human
SKOV3 ovarian cells = test: SKOV3 ovarian cell proliferation; assay type: cell-based; conditions: 24, 48 and 72 hours
Method: SKOV3 ovarian cells were cultured for up to three days in the presence of different concentrations of cromolyn, and cell proliferation was analyzed at 24, 48, and 72 hours. *, P<0.05.

| Compound | tumor burden, difference versus control (BxPC-3 orthotopic tumors; BxPC-3) | effect on liver metastasis (BxPC-3 orthotopic tumors; BxPC-3, versus control) | effect on lung metastasis (BxPC-3 orthotopic tumors; BxPC-3, versus control) | lung metastasis, mean (BxPC-3 orthotopic tumors; BxPC-3) | tumor burden (primary tumor volume by bioluminescence), mean (BxPC-3 orthotopic tumors; BxPC-3) | body weight, difference versus control (BxPC-3 orthotopic tumors; BxPC-3 model) [g] | body weight at the end of the experiment, mean (BxPC-3 orthotopic tumors; BxPC-3 model, control mean=31.1) [g] | apoptotic BxPC-3 cells, mean (BxPC-3 cells; gemcitabine 10 μM, cromolyn 10 μM, control mean=3.7%) | apoptotic BxPC-3 cells, difference versus control (BxPC-3 cells; gemcitabine 10 μM) [%] | lung metastasis, difference versus control (BxPC-3 orthotopic tumors; BxPC-3) | effect on body weight (BxPC-3 orthotopic tumors; BxPC-3 model, up to 6 weeks) | cell killing effect of taxol on prostate cancer cells (PC3 prostate cells) | MPanc-96 basal cell invasiveness (MPan-96 cells) | growth of SKOV3 cells (SKOV3 ovarian cells) | effect on BxPC-3 cell apoptosis, cromolyn alone (BxPC-3 cells; cromolyn 10 μM) |
| --- | --- | --- | --- | --- | --- | --- | --- | --- | --- | --- | --- | --- | --- | --- | --- |
| Nc1ccn([C@@H]2O[C@H](CO)[C@@H](O)C2(F)F)c(=O)n1 [gemcitabine] | 6.8×10^8 photons/sec | did not reduce metastasis | did not reduce metastasis | 3.9×10^8 photons/sec | 9.2×10^8 photons/sec | 3.9 | 27.2 | 31.0% and 30.8% | 27.3 | – | – | – | – | – | – |
| O=C(O)c1cc(=O)c2c(OCC(O)COc3cccc4oc(C(=O)O)cc(=O)c34)cccc2o1 [cromolyn, disodium 1,3-bis[(2′-carboxylatochromon-5′-yl)oxy]-2-hydroxypropane] | 1.2×10^9 photons/sec | – | – | 1.6×10^8 photons/sec | 4.4×10^8 photons/sec | – | – | – | – | 3.9×10^8 photons/sec | no effect on body weight | increased the cell killing effect of taxol | inhibited basal cell invasiveness | reduced the growth | no statistically significant effect |
